Measured values: patent publication US12116593B2, “Method for producing adenohypophysis or precursor tissue thereof” (RIKEN, priority 2014, dated 2024)
Ends that are not written are not given here.

Assays:
Human ES cells (KhES-1) = test: Differentiation of human ES cell aggregates in serum-free suspension culture (SFEBq), fluorescent antibody method; assay type: cell-based
From the text: Human ES cells (KhES-1) were subjected to maintenance culture by a conventional method on MEF and used. To monitor differentiation induction into a hypothalamus tissue, KhES-1 wherein Venus cDNA is knocked-in into the gene of Rx which is a hypothalamus neuroepithelium marker was used. To differentiate human ES cells by serum-free suspension culture of aggregate (SFEBq method), human ES cells were dispersed to single cells by enzyme by the method of Nakano et al. (Cell Stem Cell, 2012), and reaggregated in a low cell adhesive V-bottom 96 well plate (SUMITOMO BAKELITE). 5,000 cells were seeded per well, and cultured in the following differentiation medium at 5% CO2, 37° C. gfCDM medium (growth-factor-free Chemically Defined Medium; Wataya et al., PNAS, 2008)+5% KSR (Invitrogen).
With the day of seeding as day 0 of differentiation culture, 20 μM Y-27632 (ROCK inhibitor; inhibitor of cell death during dispersion: Watanabe et al., Nature Biotechnology, 2007) was added from day 0 to day 3, and a half of the medium was exchanged with a differentiation medium free of Y-27632 on days 3 and 6 of culture. From day 3 to day 18 of culture, BMP4 (final concentration 5 nM) was added to the medium. On and after day 18, a half of the medium was exchanged every 3 days with a medium free of BMP4. […] On and after day 18, the oxygen partial pressure during the culture was set to 40%. Tissue differentiation was analyzed by a fluorescent antibody method.
The cell aggregates derived from human ES cells and simultaneously containing ventral hypothalamus tissue and epidermal placode were formed by the method of Example 1, culture was continued until day 27 or day 30 of culture under similar conditions, and the aggregates were analyzed by a fluorescent antibody method. In some culture, FGF2 (final concentration 20 ng/ml) was added to the medium from day 15 of culture.
By the method of Example 1, an influence of the presence or absence of BMP4 addition on the differentiation of cell aggregates was analyzed by a fluorescent antibody method.
By the method of Example 1, an influence of the presence or absence of the addition of hedgehog signal agonist SAG on the differentiation of cell aggregate was analyzed by a fluorescent antibody method.
In addition to the method of Example 8, differentiation of hypophysial placode reacted with Notch signal inhibitor DAPT (10 μM) from day 72 to day 82 of culture was analyzed by a fluorescent antibody method.

Tbx19 = Tbx19 expression in aggregates by qPCR; assay type: cell-based, human; conditions: DAPT 10 μM day 65 to 74; aggregates on day 74
Experimental: According to the method of Example 5, hypophysial placode derived from human ES cells was formed, and cultured for a long term. DAPT (10 μM), a Notch signal inhibitor, was allowed to act thereon from day 65 to day 74 of culture, and the effect thereof was analyzed by a qPCR method.

[1] = tested on: aggregates containing ACTH-producing cells; test: In vitro ACTH release from aggregates containing ACTH-producing cells, ELISA; assay type: cell-based, human; conditions: 37° C.
Experimental: In vitro hormone secretory capacity was analyzed using the aggregates containing ACTH-producing cells produced by the method of Example 5. Using a 1.5 ml Eppendorf tube containing 250 μl of HBSS(−) containing 16 aggregates at day 80 of culture, the aggregates were incubated in the presence or absence of CRH (1 μg/ml) at 37° C. for 10 min. The concentration of ACTH in the culture supernatant was quantified by the ELISA method.
Furthermore, to examine feedback suppressive ability due to downstream hormone (glucocorticoid), 16 aggregates on day 80 of culture were preincubated in the presence or absence of hydrocortisone (20 μg/ml) at 37° C. for 3 hr, and the effect of release of ACTH after CRH treatment was analyzed.

mouse system = test: Exogenous BMP4 added to mouse system; assay type: cell-based
[2] = tested on: aggregate containing GH-producing cells; test: In vitro GH release from aggregates containing GH-producing cells, ELISA; assay type: cell-based, human; conditions: GRF 100 ng/ml, 37° C., 30 min; aggregates differentiated with hydrocortisone 1 μg/ml days 72-84; day 84
Experimental: In addition to the method of Example 10, in vitro hormone secretory capacity was analyzed using the aggregate containing GH-producing cells differentiated in a medium containing hydrocortisone (1 μg/ml) from days 72 to 84 of culture. Using a 1.5 ml Eppendorf tube containing 500 μl of HBSS containing 33 aggregates at day 84 of culture, the aggregates were incubated in the presence or absence of GRF (100 ng/ml) at 37° C. for 30 min. The concentration of GH in the culture supernatant was quantified by the ELISA method.
In addition to the method of Example 10, in vitro hormone secretory capacity was analyzed using the aggregate containing GH-producing cells differentiated in a medium containing dexamethasone (40 ng/ml) from days 70 to 84 of culture. Using a 1.5 ml Eppendorf tube containing 750 μl of a medium containing 30 aggregates at day 84 of culture, the aggregates were incubated in the presence of GRF (0.1, 1, 10 μg/ml) at 37° C. for 30 min. The concentration of GH in the culture supernatant was quantified by the ELISA method. In addition, in order to investigate a potential of somatostatin to suppress GH secretion, 18 aggregates at day 98 of culture were incubated in the presence or absence of somatostatin (100 ng/ml) at 37° C. for 90 min, and effects on GH release after GRF treatment were analyzed.

[3] = SAG 2 μM from day 6, with BMP4, day 24 and 27
[4] = BMP4 5 nM day 3-18 vs no addition, day 24

C[C@H](NC(=O)Cc1cc(F)cc(F)c1)C(=O)N[C@H](C(=O)OC(C)(C)C)c1ccccc1 [DAPT, N—[N-(3,5-difluorophenacetyl)-1-alanyl]-S-phenylglycine t-butyl ester]
endocrine cells found in hypophysial placode after DAPT (Human ES cells (KhES-1); DAPT 10 μM day 72 to 82): LH-producing cells and FSH-producing cells were found in the hypophysial placode
increase of Tbx19 expression vs non-treatment group (Tbx19): ≥ 8 times

CN[C@H]1CC[C@H](N(Cc2cccc(-c3ccncc3)c2)C(=O)c2sc3ccccc3c2Cl)CC1 [SAG, 3-Chloro-N-[trans-4-(methylamino)cyclohexyl]-N-[[3-(4-pyridinyl)phenyl]methyl]-benzo[b]thiophene-2-carboxamide]
tissue differentiated under BMP4 non-addition conditions (Human ES cells (KhES-1); BMP4 not added, SAG 200 nM d6-25, day 24): FoxG1-positive and Nkx2.1-positive basal ganglion was differentiated
formation of hypophysial placode on the surface (Human ES cells (KhES-1); [3]): hypophysial placode was formed on the surface
tissue formed in the inside of the aggregates (Human ES cells (KhES-1); [3]): ventral hypothalamus tissue (Rx::Venus-positive, Chx10-negative, Nkx2.1-positive) was formed in the inside of the aggregates

C[C@]12CCC(=O)C=C1CC[C@@H]1[C@@H]2[C@@H](O)C[C@@]2(C)[C@H]1CC[C@]2(O)C(=O)CO [hydrocortisone]
ACTH concentration after CRH treatment relative to preincubation without hydrocortisone ([1]; hydrocortisone 20 μg/ml preincubation 3 hr, day 80 aggregates): less than one-sevenths

BMP4: bone morphogenetic factor signal transduction pathway activating substance; a known cytokine
formation of neuroepithelial tissue (hypothalamus) inside the cell aggregate (mouse system): acted inhibitingly on the formation of the neuroepithelial tissue (hypothalamus)
formation of surface ectoderm (mouse system): promoted formation of surface ectoderm
differentiation of neural tissue in the aggregate (Human ES cells (KhES-1); [4]): differentiation induction of neural tissue of hypothalamus
formation of surface ectoderm (Human ES cells (KhES-1); [4]): active formation of surface ectoderm

CRH: hypothalamic stimulus inducing release of ACTH from ACTH-producing cells (SEEPPISLDLTFHLLREVLEMARAEQLAQQAHSNRKLMEII; ends and bridges not checked; UniProt P06850 154-194, looked up)
ACTH concentration in culture supernatant vs incubation in absence of CRH ([1]; CRH 1 μg/ml, 10 min, 16 aggregates at day 80): not less than 5 fold

FGF2: known cytokine also called basic fibroblast growth factor (bFGF)
increase of formation of hypophysial placode (Human ES cells (KhES-1); FGF2 20 ng/ml from day 15 of culture, day 27/30 aggregates): 30%

GRF: stimulus inducing release of GH from GH-producing cells (YADAIFTNSYRKVLGQLSARKLLQDIMSRQQGESNQERGARARL; ends and bridges not checked; UniProt P01286 32-75, looked up)
GH concentration in culture supernatant vs incubation in absence of GRF [2]: not less than 6 fold
